Measured values: patent publication US11946934B2, “Biomarker for predicting the sensitivity to a protein kinase inhibitor and a use thereof” (Wellmarker Bio Co., LTD., priority 2014, dated 2024)
Entries after “also recorded” stand apart in the source; their conditions may differ. Each block holds one compound with its values, some of them ahead of it.

Key:
[1] = target: T1, RON phosphorylation (Homo sapiens, UniProt Q04912); experiment: RON phosphorylation in tumor tissue of the HCT8 xenograft model (immunochemical staining, western blot); format: in vivo; details: after completion of administration, FIG. 8c, 8d
T1 construct: endogenous in cells; host or cells: HCT8 (cultured, and as xenograft tumour in nude mice)
T1 sequence (Q04912 25-1400): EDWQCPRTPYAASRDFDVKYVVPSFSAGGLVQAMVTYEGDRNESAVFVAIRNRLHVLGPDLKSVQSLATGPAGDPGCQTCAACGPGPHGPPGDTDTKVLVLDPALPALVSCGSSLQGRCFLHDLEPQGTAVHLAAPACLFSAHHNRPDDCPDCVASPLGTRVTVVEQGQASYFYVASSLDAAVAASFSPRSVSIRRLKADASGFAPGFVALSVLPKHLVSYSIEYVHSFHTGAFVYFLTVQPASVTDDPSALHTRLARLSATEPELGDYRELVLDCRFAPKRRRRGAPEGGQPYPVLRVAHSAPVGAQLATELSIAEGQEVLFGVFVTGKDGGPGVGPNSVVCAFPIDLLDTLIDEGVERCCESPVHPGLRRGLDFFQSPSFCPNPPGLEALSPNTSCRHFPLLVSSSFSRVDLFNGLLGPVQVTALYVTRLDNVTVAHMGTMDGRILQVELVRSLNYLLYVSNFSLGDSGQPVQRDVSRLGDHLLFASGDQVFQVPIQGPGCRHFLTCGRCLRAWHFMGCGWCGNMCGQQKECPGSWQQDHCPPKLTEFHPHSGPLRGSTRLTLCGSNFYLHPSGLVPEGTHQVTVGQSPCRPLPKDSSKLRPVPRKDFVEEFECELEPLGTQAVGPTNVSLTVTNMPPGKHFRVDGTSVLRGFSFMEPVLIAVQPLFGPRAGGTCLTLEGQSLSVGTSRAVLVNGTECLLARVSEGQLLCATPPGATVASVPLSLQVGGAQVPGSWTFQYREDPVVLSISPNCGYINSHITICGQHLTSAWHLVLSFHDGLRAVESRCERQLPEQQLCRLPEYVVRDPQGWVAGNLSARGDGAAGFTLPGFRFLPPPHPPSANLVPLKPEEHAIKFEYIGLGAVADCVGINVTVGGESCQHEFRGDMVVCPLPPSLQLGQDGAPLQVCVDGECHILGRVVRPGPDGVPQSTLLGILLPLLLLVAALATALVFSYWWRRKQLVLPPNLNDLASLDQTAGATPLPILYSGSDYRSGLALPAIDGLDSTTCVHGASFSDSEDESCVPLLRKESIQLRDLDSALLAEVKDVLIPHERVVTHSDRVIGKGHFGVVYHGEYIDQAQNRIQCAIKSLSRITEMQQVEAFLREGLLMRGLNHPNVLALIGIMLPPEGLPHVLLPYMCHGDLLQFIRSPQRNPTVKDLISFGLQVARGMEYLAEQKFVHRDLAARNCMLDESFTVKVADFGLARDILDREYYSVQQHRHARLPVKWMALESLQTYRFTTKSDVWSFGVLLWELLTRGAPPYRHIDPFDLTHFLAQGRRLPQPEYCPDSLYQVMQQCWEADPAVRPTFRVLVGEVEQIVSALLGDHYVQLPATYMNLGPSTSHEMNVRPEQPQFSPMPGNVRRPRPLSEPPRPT
Experimental: (§1) The cells in the sample were lysed using RIPA buffer and the protein was extracted therefrom using a high speed centrifuge. The protein in an amount of 30 μg per cell was separated by electrophoresis, transferred onto a PDVF membrane by western blot, and allowed to react with RON antibodies, which were diluted in 5% skim milk at a 1:2000 ratio, at 4° C. for 12 hours. Then, the resultant was washed 3 times with TBS-T buffer for 15 minutes per wash, reacted with the secondary antibodies, which were diluted in 5% skim milk at a 1:2000 ratio, at room temperature for 2 hours, washed 3 times with TBS-T buffer for 15 minutes per wash. The illumination of the PDVF membrane was induced using ECL buffer and the expression of the RON protein was developed using an X-ray film. Additionally, 1 μg of the RON antibody was added to the protein in an amount of 500 μg per cell by immunoprecipitation method, reacted at 4° C. for 12 hours, and anti-antibody beads were added thereto to immunoprecipitate the RON antibody. The resultant was separated by electrophoresis, transferred onto a PDVF membrane by western blot, and allowed to react with p-Tyr antibodies, which were diluted in 5% skim milk at a 1:1000 ratio, at 4° C. for 12 hours. […]

[2] = system: HCT8; experiment: Cell invasion (cell metastasis); format: cell-based; details: HCT8, FIG. 7e
Experimental: HCT8, a colon cancer cell line where RON is always phosphorylated, was treated with CJ12524 in order to confirm the degree of cell invasion.

[3] = system: HT29; experiment: Induction of apoptosis; format: cell-based
Experimental: (§2) HT29 and HCT8, the colon cancer cell lines which have a high p-RON expression level because RON is always phosphorylated, were treated with CJ12524 in order to confirm the presence of apoptosis.

[4] = system: HCT8; experiment: Induction of apoptosis; format: cell-based
Experimental: as §2

[5] = system: RON (p-RON) in HT29; experiment: Inhibition of RON phosphorylation in HT29 colon cancer cells; format: cell-based; details: HT29, various concentrations
Experimental: as §1

[6] = system: Colo320HSR introduced with RON-active Δ155 gene; experiment: Induction of apoptosis; format: cell-based
Text: (§3) Additionally, Colo320HSR, the colon cancer cell line in which RON is not expressed, was introduced with the RON-active Δ155 gene and the RON-active Δ160 gene, which are constantly active in the Colo320HSR, and treated with CJ12524 at various concentrations in order to confirm the presence of apoptosis.

[7] = system: Colo320HSR introduced with RON-active Δ160 gene; experiment: Induction of apoptosis; format: cell-based
Text: as §3

[8] = system: RON-active Δ160; experiment: Inhibition of RON phosphorylation in Colo320HSR introduced with RON variant; format: cell-based; details: Colo320HSR with RON-active Δ160 gene
Experimental: as §1

[9] = target: T2, RON-active Δ155 (Homo sapiens, UniProt Q04912, DEL574-682/INS813Q); experiment: as above; format: cell-based; details: Colo320HSR with RON-active Δ155 gene
T2 construct: expressed in transfected cells; host or cells: Colo320HSR
T2 sequence (Q04912 with tags, fused parts or gaps isoform Q04912-2 DEL574-682/INS813Q): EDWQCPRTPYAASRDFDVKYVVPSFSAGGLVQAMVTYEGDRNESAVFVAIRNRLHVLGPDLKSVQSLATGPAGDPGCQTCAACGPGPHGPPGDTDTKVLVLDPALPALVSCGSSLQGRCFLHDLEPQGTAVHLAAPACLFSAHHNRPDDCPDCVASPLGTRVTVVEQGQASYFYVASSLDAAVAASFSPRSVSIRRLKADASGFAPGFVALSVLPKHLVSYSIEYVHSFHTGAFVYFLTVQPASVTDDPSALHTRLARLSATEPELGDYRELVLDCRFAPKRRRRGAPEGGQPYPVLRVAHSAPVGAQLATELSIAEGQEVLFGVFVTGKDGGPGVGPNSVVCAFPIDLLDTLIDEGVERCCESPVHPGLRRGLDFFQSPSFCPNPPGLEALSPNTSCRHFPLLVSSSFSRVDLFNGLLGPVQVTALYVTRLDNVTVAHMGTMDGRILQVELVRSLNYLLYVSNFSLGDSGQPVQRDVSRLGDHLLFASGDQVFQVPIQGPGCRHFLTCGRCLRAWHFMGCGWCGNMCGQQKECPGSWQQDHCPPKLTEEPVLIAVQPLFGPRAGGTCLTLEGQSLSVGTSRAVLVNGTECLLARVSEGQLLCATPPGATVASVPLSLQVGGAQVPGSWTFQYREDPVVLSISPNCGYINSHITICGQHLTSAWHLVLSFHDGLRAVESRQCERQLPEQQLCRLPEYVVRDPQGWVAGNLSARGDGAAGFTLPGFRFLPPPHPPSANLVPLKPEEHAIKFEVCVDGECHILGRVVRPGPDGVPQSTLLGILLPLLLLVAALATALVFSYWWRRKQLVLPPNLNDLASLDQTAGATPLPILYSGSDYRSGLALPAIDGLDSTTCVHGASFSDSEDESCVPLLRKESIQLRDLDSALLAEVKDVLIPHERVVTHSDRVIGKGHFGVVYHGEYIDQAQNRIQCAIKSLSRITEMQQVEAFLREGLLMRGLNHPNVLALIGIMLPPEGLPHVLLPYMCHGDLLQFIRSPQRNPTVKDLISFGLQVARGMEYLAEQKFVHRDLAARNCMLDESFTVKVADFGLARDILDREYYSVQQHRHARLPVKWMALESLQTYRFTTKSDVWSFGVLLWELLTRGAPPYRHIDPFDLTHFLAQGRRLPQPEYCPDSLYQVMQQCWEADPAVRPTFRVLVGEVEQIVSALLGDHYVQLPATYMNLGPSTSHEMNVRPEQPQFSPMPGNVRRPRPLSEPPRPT
Experimental: as §1

[10] = system: HCT8 cell line xenograft in nude mice; experiment: RON-active cancer cell xenograft model, tumor size, tumor weight, body weight; format: in vivo, mouse
Experimental: For analyzing the drug sensitivity to CJ12524 in an in-vivo state, the present inventors transplanted a cancer cell line which was determined to be positive against the RON activity into nude mice, and thereby a cancer cell-derived xenograft model ([…]) was prepared.

[11] = target: T3, RON (p-RON) in HCT8 (Homo sapiens, UniProt Q04912); experiment: Inhibition of RON phosphorylation in HCT8 colon cancer cells; format: cell-based; details: HCT8, various concentrations
T3 construct: endogenous in cells; host or cells: HCT8 (cultured, and as xenograft tumour in nude mice)
T3 sequence (Q04912 25-1400): as the sequence (Q04912 25-1400) above
Experimental: as §1

[12] = system: mouse embryonic fibroblast cell line overexpressing RON R1335G; experiment: Cell invasion (cell metastasis), MSP-activated; format: cell-based; details: FIG. 6b
Text: (§4) Additionally, each of the RON mutant genes (RON M1254T and RON R1335G) was overexpressed in a mouse embryonic fibroblast cell line, activated by treating with MSP, and treated with CJ12495 in order to confirm the degree of cell invasion.

[13] = system: mouse embryonic fibroblast cell line overexpressing RON M1254T; experiment: Cell invasion (cell metastasis), MSP-activated; format: cell-based; details: FIG. 6b
Text: as §4

[14] = system: mouse embryonic fibroblast cell line overexpressing RON-active Δ165; experiment: Cell invasion (cell metastasis), MSP-activated; format: cell-based; details: RON-active Δ165, FIG. 6c
Text: (§5) Additionally, each of the RON mutant genes (RON-active Δ160 gene and RON-active Δ165 gene) was overexpressed in a mouse embryonic fibroblast cell line, activated by treating with MSP, and treated with CJ12495 in order to confirm the degree of cell invasion.

[15] = system: mouse embryonic fibroblast cell line overexpressing RON-active Δ160; experiment: Cell invasion (cell metastasis), MSP-activated; format: cell-based; details: RON-active Δ160, FIG. 6c
Text: as §5

[16] = target: T4, wild-type RON (Homo sapiens, UniProt Q04912, A209G/Q523R/R322Q); experiment: Inhibition of RON phosphorylation, IP/western blot, NIH3T3 overexpressing wild-type RON activated by MSP; format: cell-based; details: wild-type RON in NIH3T3, MSP-activated, FIG. 4a
T4 construct: expressed in transfected cells; host or cells: NIH3T3
T4 sequence (Q04912 25-1400 A209G/R322Q/Q523R): as the sequence (Q04912 25-1400) above, with A185G, R298Q, Q499R counted along it
Experimental: as §1

[17] = system: NIH3T3 overexpressing RON-active Δ160; experiment: Cell migration assay (cell motility); format: cell-based, mouse; details: RON-active Δ160, FIG. 5c
Text: (§6) Additionally, each of the RON gene variants (RON-active Δ160 gene and RON-active Δ165 gene) was overexpressed in the mouse embryonic fibroblast cell line (NIH3T3) and treated with CJ12495 in order to confirm the inhibitory effect on cell motility.

[18] = system: NIH3T3 overexpressing RON-active Δ165; experiment: Cell migration assay (cell motility); format: cell-based, mouse; details: RON-active Δ165, FIG. 5c
Text: as §6

[19] = system: NIH3T3 overexpressing mutant RON R523Q; experiment: Cell invasion (cell metastasis), MSP-activated; format: cell-based, mouse; details: FIG. 6a
Text: (§7) The wild-type RON gene and a mutant RON gene (R523Q) were each overexpressed in a mouse embryonic fibroblast cell line (NIH3T3), and RON was activated by treating with MSP and treated with CJ12495 in order to confirm the degree of cell invasion.

[20] = system: NIH3T3 overexpressing wild-type RON; experiment: Cell invasion (cell metastasis), MSP-activated; format: cell-based, mouse; details: FIG. 6a
Text: as §7

[21] = system: mouse embryonic fibroblast cell line overexpressing RON R1335G; experiment: Cell migration assay (cell motility), MSP-activated; format: cell-based; details: FIG. 5b
Text: (§8) Additionally, each of the RON mutant genes (RON M1254T and RON R1335G) was overexpressed in a mouse embryonic fibroblast cell line, activated by treating with MSP, and treated with CJ12495 in order to confirm the cell motility.

[22] = system: mouse embryonic fibroblast cell line overexpressing RON M1254T; experiment: as above; format: cell-based; details: FIG. 5b
Text: as §8

[23] = target: T5, RON R523Q (Homo sapiens, UniProt Q04912, A209G/R322Q); experiment: Inhibition of RON phosphorylation, IP/western blot, mouse embryonic fibroblasts overexpressing RON mutant, MSP; format: cell-based; details: FIG. 4b
T5 construct: expressed in transfected cells; host or cells: mouse embryonic fibroblast cell line
T5 sequence (Q04912 25-1400 A209G/R322Q): as the sequence (Q04912 25-1400) above, with A185G, R298Q counted along it
Experimental: (§9) The cells in the sample were lysed using RIPA buffer and the protein was extracted therefrom using a high speed centrifuge. The protein in an amount of 30 μg per cell was separated by electrophoresis, transferred onto a PDVF membrane by western blot, and allowed to react with RON antibodies, which were diluted in 5% skim milk at a 1:2000 ratio, at 4° C. for 12 hours. Then, the resultant was washed 3 times with TBS-T buffer for 15 minutes per wash, reacted with the secondary antibodies, which were diluted in 5% skim milk at a 1:2000 ratio, at room temperature for 2 hours, washed 3 times with TBS-T buffer for 15 minutes per wash. The illumination of the PDVF membrane was induced using ECL buffer and the expression of the RON protein was developed using an X-ray film. Additionally, 1 μg of the RON antibody was added to the protein in an amount of 500 μg per cell by immunoprecipitation method, reacted at 4° C. for 12 hours, and anti-antibody beads were added thereto to immunoprecipitate the RON antibody. The resultant was separated by electrophoresis, transferred onto a PDVF membrane by western blot, and allowed to react with p-Tyr antibodies, which were diluted in 5% skim milk at a 1:1000 ratio, at 4° C. for 12 hours. Then, the resultant was washed 3 times with TBS-T buffer for 15 minutes per wash, reacted with the secondary antibodies, which were diluted in 5% skim milk at a 1:2000 ratio, at room temperature for 2 hours, and washed 3 times with TBS-T buffer for 15 minutes per wash. The illumination of the PDVF membrane was induced using ECL buffer and the expression of the p-Tyr RON protein was developed using an X-ray film.
(§10) Additionally, each of the RON mutant genes (RON M1254T, RON R1335G, and RON R523Q) was overexpressed in a mouse embryonic fibroblast cell line, activated by treating with MSP, and treated with CJ12495 in order to confirm the inhibition level against RON phosphorylation.

[24] = target: T6, RON M1254T (Homo sapiens, UniProt Q04912, A209G/M1254T/Q523R/R322Q); experiment: as above; format: cell-based; details: FIG. 4b
T6 construct: expressed in transfected cells; host or cells: mouse embryonic fibroblast cell line
T6 sequence (Q04912 25-1400 A209G/R322Q/Q523R/M1254T): as the sequence (Q04912 25-1400) above, with A185G, R298Q, Q499R, M1230T counted along it
Experimental: as §9, §10

[25] = target: T7, RON R1335G (Homo sapiens, UniProt Q04912, A209G/Q523R/R1335G/R322Q); experiment: as above; format: cell-based; details: FIG. 4b
T7 construct: expressed in transfected cells; host or cells: mouse embryonic fibroblast cell line
T7 sequence (Q04912 25-1400 A209G/R322Q/Q523R/R1335G): as the sequence (Q04912 25-1400) above, with A185G, R298Q, Q499R, R1311G counted along it
Experimental: as §9, §10

[26] = system: RON-active Δ160; experiment: Inhibition of RON phosphorylation, IP/western blot, NIH3T3 overexpressing RON variant; format: cell-based; details: RON-active Δ160 in NIH3T3, FIG. 4c
Experimental: as §1

[27] = target: T8, RON-active Δ165 (Homo sapiens, UniProt Q04912); experiment: as above; format: cell-based; details: RON-active Δ165 in NIH3T3, FIG. 4d
T8 construct: expressed in transfected cells; host or cells: NIH3T3
T8 sequence (Q04912 25-1351 isoform Q04912-2 limits assumed): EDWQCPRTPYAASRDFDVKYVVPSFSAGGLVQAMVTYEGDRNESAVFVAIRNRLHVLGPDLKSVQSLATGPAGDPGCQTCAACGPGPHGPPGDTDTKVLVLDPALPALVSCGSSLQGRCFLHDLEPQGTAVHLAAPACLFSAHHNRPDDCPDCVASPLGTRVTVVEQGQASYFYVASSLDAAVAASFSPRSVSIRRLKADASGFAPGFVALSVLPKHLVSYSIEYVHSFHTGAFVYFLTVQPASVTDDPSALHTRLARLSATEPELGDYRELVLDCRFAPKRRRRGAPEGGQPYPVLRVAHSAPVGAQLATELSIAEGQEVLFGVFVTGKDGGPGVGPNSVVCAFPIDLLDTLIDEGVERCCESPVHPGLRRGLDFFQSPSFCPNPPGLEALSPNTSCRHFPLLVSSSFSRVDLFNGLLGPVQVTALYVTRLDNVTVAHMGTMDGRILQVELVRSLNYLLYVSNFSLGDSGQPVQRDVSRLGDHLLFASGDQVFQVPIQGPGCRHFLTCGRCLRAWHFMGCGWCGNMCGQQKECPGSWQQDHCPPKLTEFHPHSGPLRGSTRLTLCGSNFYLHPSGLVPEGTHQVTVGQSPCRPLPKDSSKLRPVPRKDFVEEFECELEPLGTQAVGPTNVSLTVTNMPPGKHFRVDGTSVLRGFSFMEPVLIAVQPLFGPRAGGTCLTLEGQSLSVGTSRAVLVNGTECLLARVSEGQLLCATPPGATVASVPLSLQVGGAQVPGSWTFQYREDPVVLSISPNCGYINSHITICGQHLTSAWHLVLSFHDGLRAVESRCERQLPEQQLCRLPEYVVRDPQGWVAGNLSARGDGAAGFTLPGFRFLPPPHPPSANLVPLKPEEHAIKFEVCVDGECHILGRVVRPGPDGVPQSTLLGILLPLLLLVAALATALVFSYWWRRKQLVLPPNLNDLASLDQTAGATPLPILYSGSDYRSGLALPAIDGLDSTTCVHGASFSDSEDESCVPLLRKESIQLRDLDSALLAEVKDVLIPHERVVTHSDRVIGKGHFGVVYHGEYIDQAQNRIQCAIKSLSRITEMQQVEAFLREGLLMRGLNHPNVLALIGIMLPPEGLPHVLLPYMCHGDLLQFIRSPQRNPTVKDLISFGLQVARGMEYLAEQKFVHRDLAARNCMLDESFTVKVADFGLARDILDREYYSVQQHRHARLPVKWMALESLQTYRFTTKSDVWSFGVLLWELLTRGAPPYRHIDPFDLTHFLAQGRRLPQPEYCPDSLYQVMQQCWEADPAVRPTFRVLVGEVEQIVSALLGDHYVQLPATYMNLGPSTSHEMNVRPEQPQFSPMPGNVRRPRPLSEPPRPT
Experimental: as §1

[28] = system: NIH3T3 overexpressing wild-type RON; experiment: Cell migration assay (cell motility), MSP-activated; format: cell-based, mouse; details: FIG. 5a
Text: First, the wild-type RON gene was overexpressed in a mouse embryonic fibroblast cell line (NIH3T3), activated by treating with MSP, and treated with CJ12495 in order to confirm cell motility.

[29] = various concentrations, 14 days, FIG. 8a

RON phosphorylation in tumor tissue [1]: decreased
RON phosphorylation [9]: reduced
RON phosphorylation [11]: inhibited; also recorded: reduced
Structure (SMILES): CCOc1ccn(-c2ccc(F)cc2)c(=O)c1C(=O)Nc1ccc(Oc2ccnc3cc(-c4ccccn4)sc23)c(F)c1 [CJ12524, 4-ethoxy-N-(3-fluoro-4-(2-(pyridin-2-yl)thieno[3,2-b]pyridin-7-yloxy)phenyl)-1-(4-fluorophenyl)-2-oxo-1,2-dihydropyridin-3-carboxamide]
inhibition of the degree of cell metastasis (cell invasion) [2]: about 60%
expression of cleaved caspase 3 ([3]; HT29): increased
apoptosis ([3]; HT29, various concentrations, according to the concentration, FIG. 7c): increased
expression of cleaved caspase 3 ([4]; HCT8): increased
apoptosis ([4]; HCT8, various concentrations, according to the concentration, FIG. 7c): increased
RON phosphorylation [5]: inhibited; also recorded: reduced
expression of cleaved caspase 3 (apoptosis marker) ([6]; Colo320HSR RON-active Δ155, according to the concentration): increased
apoptosis ([6]; Colo320HSR RON-active Δ155, various concentrations, FIG. 7d): increased
expression of cleaved caspase 3 (apoptosis marker) ([7]; Colo320HSR RON-active Δ160, according to the concentration): increased
apoptosis ([7]; Colo320HSR RON-active Δ160, various concentrations, FIG. 7d): increased
RON phosphorylation [8]: reduced
tumor weight upon completion of drug administration ([10]; all treated groups, FIG. 8b): reduced
body weight of the mice [10, 29]: almost no decrease
tumor growth (tumor size) [10, 29]: inhibited

phosphorylation of the activated RON [16]: inhibited
phosphorylation of the activated RON [23]: inhibited
phosphorylation of the activated RON [24]: inhibited
phosphorylation of the activated RON [25]: inhibited
phosphorylation of the active RON [27]: inhibited
Structure (SMILES): CCOc1ccn(-c2ccc(F)cc2)c(=O)c1C(=O)Nc1ccc(Oc2ccnc3cc(-c4cn(C)cn4)sc23)c(F)c1 [CJ12495, 4-ethoxy-N-(3-fluoro-4-(2-(1-methyl-1H-imidazol-4-yl)thieno[3,2-b]pyridin-7-yloxy)phenyl)-1-(4-fluorophenyl)-2-oxo-1,2-dihydropyridin-3-carboxamide]
cell metastasis (cell invasion) increased by MSP activation [12]: inhibited
cell metastasis (cell invasion) increased by MSP activation [13]: inhibited
cell metastasis (cell invasion) increased by MSP activation [14]: inhibited
cell metastasis (cell invasion) increased by MSP activation [15]: inhibited
cell motility [17]: inhibited
cell motility [18]: inhibited
cell metastasis (cell invasion) increased by MSP activation [19]: inhibited
cell metastasis (cell invasion) increased by MSP activation [20]: inhibited
cell motility increased by MSP activation [21]: inhibited
cell motility increased by MSP activation [22]: inhibited
phosphorylation of the active RON [26]: inhibited
cell motility increased by MSP activation [28]: inhibited
